Entries after “also recorded” stand apart in the source; their conditions may differ.

Series [1] deals with pIκBα in CD14+ human blood monocytes. Description: pIκBα protein levels by immunoblot. It is filed as cell-based. Conditions: LPS 10 ng/ml-induced monocytes, resveratrol 80 μM or ONX-0914 0.25 μM, 60 min preincubation. (A western blot detects proteins with antibodies after separation by electrophoresis.)
For series [2], the system named is purified human 20S proteasome and immunoproteasome, T-like activity. The series can be described thus: Purified proteasome fluorescence assay, T-like activity. It is filed as biochemical.
A further series relates to THP1 cells. The series can be described thus: Cyto-ID autophagy detection assay, THP1 cells. It is filed as cell-based, human. The following applies: 4h incubation, resveratrol 80 μM, ONX-0914 0.25 μM.
In series [3] the test system is purified human 20S proteasome and immunoproteasome, PA activity. The series can be described thus: Purified proteasome fluorescence assay, PA activity. The class given is biochemical. The following applies: 50 μM dose, cell-free.
Series [4] concerns CD14+ human blood monocytes. Description: Gene expression by qRT-PCR in LPS-induced CD14+ monocytes. It is filed as cell-based. The following applies: for expression of Bax / expression of Bcl2 / proteasome subunits RNA (X, Y, Z): resveratrol 80 μM or ONX-0914 0.25 μM; for LPS-induced atg7 expression / LPS-induced expression of resistin / expression of ICAM-1 / expression of IFNγ / expression of IL-8 / expression of LMP10 subunit / expression of Sirt-1 / expression of TNF-α / mRNA expression of LMP2 subunit / mRNA expression of LMP7 subunit: resveratrol 80 μM or ONX-0914 0.25 μM pretreatment 1h, LPS 10 ng/mL 4h; for proteasome subunits RNA (X, Y, Z): with LPS 10 ng/mL 4h. On the technique in general: In qPCR the cycle at which signal appears reflects the starting amount.

In series [5] the test system is T-like proteasome activity in THP1 cells. The series can be described thus: Cell-based proteasome activity, luminescence assay. Conditions: read-out: IC50, T-like activity (cellular), 30 min incubation. Also noted: species or system human.
For the next series, the system named is monocytes. Description: MTT and LDH cell death assay. The following applies: 80 μM, human monocytes, MTT, LDH or autophagy tests.
A short description of series [6]: MTT and LDH cell death assay. The following applies: human.
Series [7] concerns CT-like proteasome activity in THP1 cells. Description: Cell-based proteasome activity, luminescence assay. Also noted: species or system human. Conditions: read-out: IC50, CT-like activity (cellular), 30 min incubation.
Series [8] addresses purified human 20S immunoproteasome (LMP subunits), PA activity (Homo sapiens, UniProt P28065). Description: Purified proteasome fluorescence assay, PA activity, immunoproteasome. It is filed as biochemical.
For series [9], the target named is purified human 20S proteasome (X, Y and Z), CT-like activity (Homo sapiens, UniProt P28074). It is filed as biochemical.
For series [10], the target named is purified human 20S immunoproteasome (LMP7, LMP2 and LMP10), CT-like activity (Homo sapiens, UniProt P28062). Description: Purified proteasome fluorescence assay, CT-like activity, immunoproteasome. It is filed as biochemical.
The subject of series [11] is CD14+ human blood monocytes. The series can be described thus: Cyto-ID autophagy detection assay, blood monocytes. The following applies: 4h incubation, resveratrol 80 μM. The class given is cell-based.
The target in series [12] is purified human 20S proteasome, PA activity (Homo sapiens, UniProt P28072). The series can be described thus: Purified proteasome fluorescence assay, PA activity, constitutive proteasome. It is filed as biochemical.
In series [13] the test system is PA proteasome activity in THP1 cells. Description: Cell-based proteasome activity, luminescence assay. Also noted: species or system human. Conditions: read-out: IC50, PA activity (cellular), 30 min incubation.

Turning to `COc1ccc(C[C@H](NC(=O)[C@H](C)NC(=O)CN2CCOCC2)C(=O)N[C@@H](Cc2ccccc2)C(=O)C2(C)CO2)cc1` (stereo in doubt) [ONX-0914, reference compound], the “degradation of pIκBα protein” value in [1] is “inhibited pIκBα protein degradation”. Besides, the “inhibition of T-like activity” value in [2] (highest dose of ONX-0914, cell-free) is “didn’t observe any inhibition”. In the series with THP1 cells, the induction of autophagy result was “resulted in autophagy and vacuole accumulation”. Besides, the “inhibition of PA activity” value in series [3] amounted to 30%. For the same compound, in [4], the “expression of Bax” value is “didn’t notice any effect”, the “expression of Bcl2” value is listed as “didn’t notice any effect”, the “LPS-induced atg7 expression” value is listed as “but not by ONX-0914” and the “LPS-induced expression of resistin” value was “decreased”. In series [4], the “expression of ICAM-1” value was “significantly downregulated”, the “expression of IFNγ” value is reported as “significantly downregulated”, the “expression of IL-8” value was “significantly downregulated” and the “expression of LMP10 subunit” value was “no significant change”. Moreover, in [4], the “expression of Sirt-1” value is reported as “no significant upregulation”, the “expression of TNF-α” value is “significantly downregulated”, the “mRNA expression of LMP2 subunit” value is reported as “robust decrease” and the “mRNA expression of LMP7 subunit” value is recorded as “robust decrease”. Also, in series [4], the “proteasome subunits RNA (X, Y, Z)” value is recorded as “did not observe a significant change”.
With `Oc1ccc(C=Cc2cc(O)cc(O)c2)cc1` [resveratrol, 3,5, 4′-trihydroxystilbene], in series [5], the IC50 – broadly, the concentration that gives 50% inhibition – is 5 µM. The cell death entry in the series on monocytes is “no cell death was observed”. Besides, the viability (in general, the share of living cells, or the viability signal relative to a control) at 4 h, 100 μM in series [6] is more than 90%. Besides, the “degradation of pIκBα protein” value in [1] is recorded as “inhibited degradation of pIκBα protein levels”. For the same compound, in [7], the 50% inhibitory concentration (IC50) stood at 1.9 µM. Further, the “inhibition of T-like activity” value in [2] (100 μM dose, cell-free) was 33%. Further, in the series on THP1 cells, the induction of autophagy result was “did not induce autophagy”. In series [8], this compound displayed an IC50 of 40.8 µM. In series [9], this compound returned an IC50 of 59.4 µM. The same compound registered an IC50 in series [10] of 39.8 µM. For the same compound, the induction of autophagy entry in [11] is on record as “did not induce autophagy”. In series [12], this compound yielded an IC50 of 52.9 µM. For the same compound, the IC50 in series [13] came out at 1.37 µM. In series [4], the “expression of Bax” value is on record as “no change; also recorded: didn’t notice any effect”, the “expression of Bcl2” value is “no change; also recorded: didn’t notice any effect”, the “LPS-induced atg7 expression” value is listed as “downregulated” and the “LPS-induced expression of resistin” value is reported as “decreased”. Also, in series [4], the “expression of ICAM-1” value is listed as “significantly downregulated”, the “expression of IFNγ” value was “significantly downregulated”, the “expression of IL-8” value is reported as “significantly downregulated” and the “expression of LMP10 subunit” value is listed as “no significant change”. In [4], the “expression of Sirt-1” value was “no significant upregulation”, the “expression of TNF-α” value is recorded as “significantly downregulated”, the “mRNA expression of LMP2 subunit” value is recorded as “robust decrease” and the “mRNA expression of LMP7 subunit” value is reported as “robust decrease”. In addition, the “proteasome subunits RNA (X, Y, Z)” value in [4] is reported as “did not observe a significant change”. Also, in series [4] (resveratrol 80 μM, with or without LPS 10 ng/mL), the “expression of beclin1, eIF2α, p53 and hdac6 genes” value is recorded as “no significant change”.

The values above are taken from article PMC5999526 (Shock (Augusta, Ga.), 2018).
